Results from patent US20050074879A1, “Antisense oligonucleotide modulation of STAT3 expression” (priority 2000, published 2005).
Oligonucleotides are written 5' to 3', each unit as a sugar letter and its base; * is a phosphorothioate linkage, no mark a phosphodiester; rarer units and linkages stand in square brackets, end groups in braces. Plain capitals give the bases only. e = 2'-O-(2-methoxyethyl) (MOE); [5mC] = 5-methylcytosine; d = 2'-deoxy (DNA)

Test system: Human STAT3 mRNA
Experiment: Inhibition of human STAT3 mRNA levels in A549 cells, 75 nM, real-time PCR (Table 13)
Type: cell-based
Settings: 75 nM oligonucleotide with LIPOFECTIN, real-time PCR PPS 199, percent inhibition relative to untreated control cells, average of 2 experiments
Experimental: Oligonucleotide activity is assayed by quantitation of STAT3 mRNA levels by real-time PCR (RT-PCR) using the ABI PRISMS 7700 Sequence Detection System (PE-Applied Biosystems, Foster City, Calif.) according to manufacturer's instructions. This is a closed-tube, non-gel-based, fluorescence detection system which allows high-throughput quantitation of polymerase chain reaction (PCR) products in real-time. As opposed to standard PCR, in which amplification products are quantitated after the PCR is completed, products in RT-PCR are quantitated as they accumulate. This is accomplished by including in the PCR reaction an oligonucleotide probe that anneals specifically between the forward and reverse PCR primers, and contains two fluorescent dyes. A reporter dye (e.g., JOE or FAM, PE-Applied Biosystems, Foster City, Calif.) is attached to the 5′ end of the probe and a quencher dye (e.g., TAMRA, PE-Applied Biosystems, Foster City, Calif.) is attached to the 3′ end of the probe. When the probe and dyes are intact, reporter dye emission is quenched by the proximity of the 3′ quencher dye. During amplification, annealing of the probe to the target sequence creates a substrate that can be cleaved by the 5′-exonuclease activity of Taq polymerase. […] With each cycle, additional reporter dye molecules are cleaved from their respective probes, and the fluorescence intensity is monitored at regular (six-second) intervals by laser optics built into the ABI PRISM™ 7700 Sequence Detection System. In each assay, a series of parallel reactions containing serial dilutions of mRNA from untreated control samples generates a standard curve that is used to quantitate the percent inhibition after antisense oligonucleotide treatment of test samples.
RT-PCR reagents are obtained from PE-Applied Biosystems, Foster City, Calif. RT-PCR reactions are carried out by adding 25 l PCR cocktail (1× TAQMAN7 buffer A, 5.5 mM MgCl2, 300 µM each of DATP, dCTP and dGTP, 600 µM of dUTP, 100 nM each of forward primer, reverse primer, and probe, 20 U RNAse inhibitor, 1.25 units AMPLITAQ GOLD7, and 12.5 U MuLV reverse transcriptase) to 96 well plates containing 25 l poly(A) mRNA solution. The RT reaction is carried out by incubation for 30 minutes at 48° C. following a 10 minute incubation at 95° C. to activate the AMPLITAQ GOLD7, 40 cycles of a two-step PCR protocol are carried out: 95° C. for 15 seconds (denaturation) followed by 60° C. for 1.5 minutes (annealing/extension).
The compounds were analyzed for their effect on STAT3 mRNA levels in A549 cells. The human lung carcinoma cell line A549 was obtained from the American Type Culture Collection (ATCC) (Manassas, Va.). A549 cells were routinely cultured in DMEM basal media (Invitrogen Corporation, Carlsbad, Calif.) supplemented with 10% fetal calf serum (Invitrogen Corporation, Carlsbad, Calif.), 100 units/mL penicillin, and 100 ug/mL streptomycin (Invitrogen Corporation, Carlsbad, Calif.). Cells were routinely passaged by trypsinization and dilution when they reached 90% confluence.
When cells reached 65-75% confluency, they were treated with oligonucleotide. For cells grown in 96-well plates, wells were washed once with […] OPTI-MEM-1 reduced-serum medium (Invitrogen Corporation, Carlsbad, Calif.) and then treated with 130 µL of OPTI-MEM-1 containing […] LIPOFECTIN (Invitrogen Corporation, Carlsbad, Calif.) and 75 nM of the compounds in Table 13. Cells were treated and data were obtained in duplicate. Untreated cells served as controls. After 4-7 hours of treatment at 37° C., the medium was replaced with fresh medium. Cells were harvested 16-24 hours after oligonucleotide treatment. STAT3 mRNA levels in A549 cells were quantitated by real-time PCR as described by other methods herein.
Probes and primers to human STAT3 were designed to hybridize to a human STAT3 sequence, using published sequence information (incorporated herein as SEQ ID NO: 1). For STAT 3 the PCR primers were: • forward primer: […]

Substance | % Inhib (inhibition of human STAT 3 mRNA levels)
337245 (antisense eA*eG*e[5mC]*e[5mC]*eT*d[5mC]*dT*dG*d[5mC]*dA*d[5mC]*d[5mC]*d[5mC]*dT*d[5mC]*eA*eT*eG*eT*eT) [compound 337245] | 77%
337246 (antisense e[5mC]*eT*e[5mC]*e[5mC]*eT*dA*dA*dA*dT*dT*dA*dA*dG*dA*dA*e[5mC]*eT*eT*e[5mC]*eT) [compound 337246] | 37%
337248 (antisense eT*eA*eT*eT*eG*dA*dA*dA*dA*dT*dT*dA*dT*d[5mC]*dT*eA*eA*eT*eT*e[5mC]) [compound 337248] | 0%
337249 (antisense eT*eT*eG*eG*eG*d[5mC]*d[5mC]*dA*dT*d[5mC]*d[5mC]*dT*dG*d[5mC]*dT*eA*eA*eA*eA*eT) [compound 337249] | 48%
337250 (antisense eA*eT*eT*e[5mC]*eA*d[5mC]*dT*dT*dG*d[5mC]*d[5mC]*dT*d[5mC]*d[5mC]*dT*eT*eG*eA*e[5mC]*eT) [compound 337250] | 51%
337251 (antisense eA*eT*eG*e[5mC]*e[5mC]*d[5mC]*dT*dT*dA*d[5mC]*dT*d[5mC]*dT*d[5mC]*d[5mC]*eG*e[5mC]*eA*eT*e[5mC]) [compound 337251] | 74%
337252 (antisense e[5mC]*eT*eG*eA*eA*d[5mC]*dT*dT*dA*d[5mC]*d[5mC]*d[5mC]*dT*d[5mC]*dT*eG*eA*eG*eA*eG) [compound 337252] | 60%
337253 (antisense eA*eA*eA*eT*eG*d[5mC]*dG*dG*dA*d[5mC]*d[5mC]*d[5mC]*dA*dA*dG*eA*eG*eT*eT*eT) [compound 337253] | 49%
337254 (antisense e[5mC]*eT*eT*eG*eT*dT*d[5mC]*d[5mC]*d[5mC]*dT*d[5mC]*dG*dG*d[5mC]*dT*eG*e[5mC]*eG*eA*e[5mC]) [compound 337254] | 57%
337255 (antisense eG*e[5mC]*e[5mC]*eT*eG*dT*d[5mC]*d[5mC]*dA*dG*dG*dA*dT*d[5mC]*d[5mC]*eG*eG*eT*eT*eG) [compound 337255] | 75%
337256 (antisense eG*eA*eA*eG*eG*dG*d[5mC]*d[5mC]*dT*d[5mC]*dT*d[5mC]*d[5mC]*dG*dA*eG*e[5mC]*e[5mC]*eG*eA) [compound 337256] | 67%
337257 (antisense eG*eG*e[5mC]*eG*eG*d[5mC]*dG*dA*dG*dG*d[5mC]*dT*d[5mC]*d[5mC]*d[5mC]*eT*e[5mC]*eA*eG*eG) [compound 337257] | 80%
337258 (antisense eT*e[5mC]*e[5mC]*eG*eG*d[5mC]*dA*dG*dA*dG*dG*d[5mC]*d[5mC]*dG*dA*eG*eA*eG*eG*e[5mC]) [compound 337258] | 56%
337259 (antisense e[5mC]*e[5mC]*eA*eT*e[5mC]*d[5mC]*dT*dG*d[5mC]*dT*dA*dA*dA*dA*dT*e[5mC]*eA*eG*eG*eG) [compound 337259] | 58%
337260 (antisense e[5mC]*e[5mC]*eA*eT*eT*dG*dG*dG*d[5mC]*d[5mC]*dA*dT*d[5mC]*d[5mC]*dT*eG*e[5mC]*eT*eA*eA) [compound 337260] | 62%
337261 (antisense eT*eG*eT*e[5mC]*eA*dA*dG*d[5mC]*dT*dG*d[5mC]*dT*dG*dT*dA*eG*e[5mC]*eT*eG*eA) [compound 337261] | 79%
337262 (antisense eA*eA*e[5mC]*eT*eG*d[5mC]*d[5mC]*dG*d[5mC]*dA*dG*d[5mC]*dT*d[5mC]*d[5mC]*eA*eT*eT*eG*eG) [compound 337262] | 74%

Substance | % Inhib (inhibition of human STAT 3 mRNA levels)
337263 (antisense eT*e[5mC]*eT*eT*eG*dA*d[5mC]*dT*d[5mC]*dT*d[5mC]*dA*dA*dT*d[5mC]*e[5mC]*eA*eA*eG*eG) [compound 337263] | 79%
337264 (antisense e[5mC]*eG*e[5mC]*eA*eT*dA*dT*dG*d[5mC]*d[5mC]*d[5mC]*dA*dA*dT*d[5mC]*eT*eT*eG*eA*e[5mC]) [compound 337264] | 81%
337265 (antisense e[5mC]*eG*eA*e[5mC]*eT*d[5mC]*dT*dT*dG*d[5mC]*dA*dG*dG*dA*dA*eG*e[5mC]*eG*eG*e[5mC]) [compound 337265] | 92%
337266 (antisense eT*e[5mC]*eG*eT*eA*dG*dA*dT*dT*dG*dT*dG*d[5mC]*dT*dG*eA*eT*eA*eG*eA) [compound 337266] | 61%
337267 (antisense eA*eG*eA*eA*eA*d[5mC]*dT*dG*d[5mC]*dT*dT*dG*dA*dT*dT*e[5mC]*eT*eT*e[5mC]*eG) [compound 337267] | 62%
337268 (antisense eG*eA*eT*eA*e[5mC]*d[5mC]*dT*dG*d[5mC]*dT*d[5mC]*dT*dG*dA*dA*eG*eA*eA*eA*e[5mC]) [compound 337268] | 75%
337269 (antisense eT*eT*e[5mC]*eT*e[5mC]*dA*dA*dG*dA*dT*dA*d[5mC]*d[5mC]*dT*dG*e[5mC]*eT*e[5mC]*eT*eG) [compound 337269] | 74%
337271 (antisense eG*eT*eG*eA*eT*dT*d[5mC]*dT*dT*d[5mC]*d[5mC]*d[5mC]*dA*d[5mC]*dA*eG*eG*e[5mC]*eA*e[5mC]) [compound 337271] | 85%
337272 (antisense eA*eT*e[5mC]*eT*eG*d[5mC]*dT*dG*d[5mC]*dT*dT*d[5mC]*dT*d[5mC]*d[5mC]*eG*eT*e[5mC]*eA*e[5mC]) [compound 337272] | 74%
337273 (antisense e[5mC]*e[5mC]*eA*eG*e[5mC]*dA*dT*d[5mC]*dT*dG*d[5mC]*dT*dG*d[5mC]*dT*eT*e[5mC]*eT*e[5mC]*e[5mC]) [compound 337273] | 73%
337274 (antisense eT*eG*eA*eA*eG*dG*dT*dG*d[5mC]*dT*dG*d[5mC]*dT*d[5mC]*d[5mC]*eA*eG*e[5mC]*eA*eT) [compound 337274] | 74%
337275 (antisense eT*eT*e[5mC]*eT*eG*dT*dT*d[5mC]*dT*dA*dG*dA*dT*d[5mC]*d[5mC]*eT*eG*e[5mC]*eA*e[5mC]) [compound 337275] | 82%
337277 (antisense eA*eA*eG*eT*e[5mC]*dA*dT*d[5mC]*d[5mC]*dT*dG*dG*dA*dG*dA*eT*eT*e[5mC]*eT*e[5mC]) [compound 337277] | 79%
337278 (antisense eA*eA*eT*e[5mC]*eA*dA*dA*dG*dT*d[5mC]*dA*dT*d[5mC]*d[5mC]*dT*eG*eG*eA*eG*eA) [compound 337278] | 69%
337279 (antisense eG*eT*eT*eG*eA*dA*dA*dT*d[5mC]*dA*dA*dA*dG*dT*d[5mC]*eA*eT*e[5mC]*e[5mC]*eT) [compound 337279] | 78%
337280 (antisense eT*eT*eA*eT*eA*dG*dT*dT*dG*dA*dA*dA*dT*d[5mC]*dA*eA*eA*eG*eT*e[5mC]) [compound 337280] | 45%
